What all share (test): Standardized radiometric kinase assays, percentage of activity at 0.5 μM;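 note: Read-out is ³³P-labelled substrate protein phosphorylated by each kinase, captured on filters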
The target in assay [1] is each individual kinase of the panel (Homo sapiens, UniProt Q16620).
Assay [2] concerns the target each individual kinase of the panel (Homo sapiens, UniProt P54753).
In assay [3] the target is each individual kinase of the panel (Homo sapiens, UniProt O15146).
For assay [4], the target named is each individual kinase of the panel (Homo sapiens, UniProt P05129).
The target in assay [5] is each individual kinase of the panel (Homo sapiens, UniProt P53778).
In assay [6] the target is each individual kinase of the panel (Homo sapiens, UniProt Q9UHD2).
Assay [7] concerns the target each individual kinase of the panel (Homo sapiens, UniProt P10721, V654A).
For assay [8], the target named is each individual kinase of the panel (Homo sapiens, UniProt P45983).
Assay [9] concerns the target each individual kinase of the panel (Homo sapiens, UniProt Q9Y6E0).
Assay [10] addresses each individual kinase of the panel (Homo sapiens, UniProt P43405).
Assay [11] deals with each individual kinase of the panel (Homo sapiens, UniProt Q9HC98).
For assay [12], the target named is each individual kinase of the panel (Homo sapiens, UniProt P22455).
In assay [13] the target is each individual kinase of the panel (Homo sapiens, UniProt P49840).
In assay [14] the target is each individual kinase of the panel (Homo sapiens, UniProt Q8N568).

The values that follow come from patent publication US8168651B2, “Protein kinase modulators” (Cylene Pharmaceuticals, Inc., priority 2008, dated 2012).

Chain of each individual kinase of the panel (Homo sapiens, UniProt P10721, V654A) (P10721 26-976 V654A limits assumed): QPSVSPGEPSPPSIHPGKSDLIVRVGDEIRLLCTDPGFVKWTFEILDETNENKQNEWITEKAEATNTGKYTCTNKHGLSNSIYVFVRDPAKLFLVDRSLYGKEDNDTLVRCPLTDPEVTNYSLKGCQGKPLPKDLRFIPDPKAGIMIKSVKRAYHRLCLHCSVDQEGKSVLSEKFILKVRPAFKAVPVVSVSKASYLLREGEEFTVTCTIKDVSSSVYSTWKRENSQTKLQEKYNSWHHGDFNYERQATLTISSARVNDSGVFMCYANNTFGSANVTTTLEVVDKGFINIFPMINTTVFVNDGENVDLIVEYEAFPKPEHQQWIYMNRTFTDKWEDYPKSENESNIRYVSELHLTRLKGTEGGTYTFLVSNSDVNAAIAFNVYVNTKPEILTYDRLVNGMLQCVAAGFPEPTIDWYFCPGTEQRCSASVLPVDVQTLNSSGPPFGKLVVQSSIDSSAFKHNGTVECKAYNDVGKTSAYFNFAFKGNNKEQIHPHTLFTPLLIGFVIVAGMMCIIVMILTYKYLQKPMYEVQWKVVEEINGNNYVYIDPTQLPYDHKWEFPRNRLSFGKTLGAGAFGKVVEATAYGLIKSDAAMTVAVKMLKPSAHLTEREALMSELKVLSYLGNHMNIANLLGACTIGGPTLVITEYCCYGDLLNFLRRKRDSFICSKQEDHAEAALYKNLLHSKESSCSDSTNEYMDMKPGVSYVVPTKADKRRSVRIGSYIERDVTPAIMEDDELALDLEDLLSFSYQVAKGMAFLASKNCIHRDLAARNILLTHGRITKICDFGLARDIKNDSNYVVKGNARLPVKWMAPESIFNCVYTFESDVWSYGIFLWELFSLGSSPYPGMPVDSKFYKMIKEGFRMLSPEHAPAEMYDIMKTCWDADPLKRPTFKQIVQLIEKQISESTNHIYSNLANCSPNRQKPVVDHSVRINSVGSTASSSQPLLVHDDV
Chain of each individual kinase of the panel (Homo sapiens, UniProt P22455) (P22455 22-802 limits assumed): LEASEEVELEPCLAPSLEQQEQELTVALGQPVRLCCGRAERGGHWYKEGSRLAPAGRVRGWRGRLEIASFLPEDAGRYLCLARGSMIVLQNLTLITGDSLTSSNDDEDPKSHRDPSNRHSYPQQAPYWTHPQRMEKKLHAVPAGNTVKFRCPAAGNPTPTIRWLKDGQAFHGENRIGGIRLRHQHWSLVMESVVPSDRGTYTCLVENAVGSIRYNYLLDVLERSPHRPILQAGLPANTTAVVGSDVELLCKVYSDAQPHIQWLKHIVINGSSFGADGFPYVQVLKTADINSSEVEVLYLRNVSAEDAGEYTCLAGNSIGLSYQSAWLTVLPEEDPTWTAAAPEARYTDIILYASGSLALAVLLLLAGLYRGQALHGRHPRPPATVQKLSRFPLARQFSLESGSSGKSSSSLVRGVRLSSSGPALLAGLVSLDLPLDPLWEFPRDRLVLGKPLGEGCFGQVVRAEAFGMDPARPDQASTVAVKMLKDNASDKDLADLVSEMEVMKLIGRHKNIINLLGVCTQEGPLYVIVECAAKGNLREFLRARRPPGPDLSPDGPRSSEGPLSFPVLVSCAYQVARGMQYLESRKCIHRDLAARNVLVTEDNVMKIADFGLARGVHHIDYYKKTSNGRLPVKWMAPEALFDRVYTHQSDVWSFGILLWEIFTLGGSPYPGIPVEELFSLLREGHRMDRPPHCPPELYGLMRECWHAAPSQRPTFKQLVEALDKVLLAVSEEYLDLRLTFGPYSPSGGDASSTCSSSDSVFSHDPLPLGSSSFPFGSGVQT
Chain of each individual kinase of the panel (Homo sapiens, UniProt P49840) (P49840 2-483 limits assumed): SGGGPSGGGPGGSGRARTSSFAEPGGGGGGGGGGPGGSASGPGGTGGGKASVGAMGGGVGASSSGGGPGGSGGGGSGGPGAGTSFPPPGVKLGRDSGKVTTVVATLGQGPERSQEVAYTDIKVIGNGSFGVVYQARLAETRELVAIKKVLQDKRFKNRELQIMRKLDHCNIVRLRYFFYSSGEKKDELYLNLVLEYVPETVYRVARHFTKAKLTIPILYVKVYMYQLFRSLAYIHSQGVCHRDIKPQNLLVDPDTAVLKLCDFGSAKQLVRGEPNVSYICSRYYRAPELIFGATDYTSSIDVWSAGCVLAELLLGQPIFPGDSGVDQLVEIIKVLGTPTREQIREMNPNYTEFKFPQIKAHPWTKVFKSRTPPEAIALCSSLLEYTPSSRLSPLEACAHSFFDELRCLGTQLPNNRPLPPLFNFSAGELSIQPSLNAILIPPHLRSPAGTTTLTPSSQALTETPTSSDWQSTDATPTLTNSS
Chain of each individual kinase of the panel (Homo sapiens, UniProt Q16620) (Q16620 32-822 limits assumed): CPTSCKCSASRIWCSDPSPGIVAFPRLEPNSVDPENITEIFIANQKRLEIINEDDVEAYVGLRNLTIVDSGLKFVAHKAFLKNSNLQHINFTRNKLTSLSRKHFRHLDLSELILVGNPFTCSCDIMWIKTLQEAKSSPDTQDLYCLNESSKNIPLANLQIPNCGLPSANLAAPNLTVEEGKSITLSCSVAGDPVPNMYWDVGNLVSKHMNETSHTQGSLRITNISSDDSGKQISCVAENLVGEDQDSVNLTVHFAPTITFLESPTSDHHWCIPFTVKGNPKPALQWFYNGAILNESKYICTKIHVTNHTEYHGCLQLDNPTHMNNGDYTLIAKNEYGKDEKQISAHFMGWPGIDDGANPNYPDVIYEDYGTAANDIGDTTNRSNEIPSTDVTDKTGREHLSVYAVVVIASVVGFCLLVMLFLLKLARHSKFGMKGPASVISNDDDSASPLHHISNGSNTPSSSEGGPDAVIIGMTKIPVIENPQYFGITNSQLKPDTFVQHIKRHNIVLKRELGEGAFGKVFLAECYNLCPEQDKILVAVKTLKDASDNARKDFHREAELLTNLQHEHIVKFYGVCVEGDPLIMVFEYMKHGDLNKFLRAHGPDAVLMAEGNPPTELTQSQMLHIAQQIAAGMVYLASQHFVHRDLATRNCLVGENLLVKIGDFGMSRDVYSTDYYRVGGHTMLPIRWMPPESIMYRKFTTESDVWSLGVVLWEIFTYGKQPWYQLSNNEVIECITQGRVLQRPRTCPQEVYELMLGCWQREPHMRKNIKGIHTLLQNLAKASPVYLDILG
Chain of each individual kinase of the panel (Homo sapiens, UniProt O15146) (O15146 24-869 limits assumed): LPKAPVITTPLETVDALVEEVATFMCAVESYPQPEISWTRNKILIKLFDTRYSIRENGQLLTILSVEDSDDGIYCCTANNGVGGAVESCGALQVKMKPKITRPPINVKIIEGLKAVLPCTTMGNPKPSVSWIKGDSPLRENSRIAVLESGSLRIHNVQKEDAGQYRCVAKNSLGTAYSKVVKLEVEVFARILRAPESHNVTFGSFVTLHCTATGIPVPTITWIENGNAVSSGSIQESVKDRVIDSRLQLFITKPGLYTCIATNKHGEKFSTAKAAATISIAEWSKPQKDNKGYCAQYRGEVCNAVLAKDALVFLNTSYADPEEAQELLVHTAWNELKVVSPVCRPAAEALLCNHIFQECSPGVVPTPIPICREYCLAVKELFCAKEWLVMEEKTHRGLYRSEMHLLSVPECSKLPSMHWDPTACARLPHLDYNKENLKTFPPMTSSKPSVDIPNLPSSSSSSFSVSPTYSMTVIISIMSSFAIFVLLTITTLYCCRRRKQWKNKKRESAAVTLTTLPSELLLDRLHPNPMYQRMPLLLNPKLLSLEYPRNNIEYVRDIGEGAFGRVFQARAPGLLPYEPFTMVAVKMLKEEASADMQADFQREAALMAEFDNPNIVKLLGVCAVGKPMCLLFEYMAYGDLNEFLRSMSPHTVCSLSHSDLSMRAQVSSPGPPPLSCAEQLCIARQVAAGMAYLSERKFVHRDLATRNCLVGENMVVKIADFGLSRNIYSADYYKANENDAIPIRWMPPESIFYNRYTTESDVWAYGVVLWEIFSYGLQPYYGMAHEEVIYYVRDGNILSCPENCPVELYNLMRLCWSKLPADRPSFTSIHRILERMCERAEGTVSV
Chain of each individual kinase of the panel (Homo sapiens, UniProt P54753) (P54753 34-998 limits assumed): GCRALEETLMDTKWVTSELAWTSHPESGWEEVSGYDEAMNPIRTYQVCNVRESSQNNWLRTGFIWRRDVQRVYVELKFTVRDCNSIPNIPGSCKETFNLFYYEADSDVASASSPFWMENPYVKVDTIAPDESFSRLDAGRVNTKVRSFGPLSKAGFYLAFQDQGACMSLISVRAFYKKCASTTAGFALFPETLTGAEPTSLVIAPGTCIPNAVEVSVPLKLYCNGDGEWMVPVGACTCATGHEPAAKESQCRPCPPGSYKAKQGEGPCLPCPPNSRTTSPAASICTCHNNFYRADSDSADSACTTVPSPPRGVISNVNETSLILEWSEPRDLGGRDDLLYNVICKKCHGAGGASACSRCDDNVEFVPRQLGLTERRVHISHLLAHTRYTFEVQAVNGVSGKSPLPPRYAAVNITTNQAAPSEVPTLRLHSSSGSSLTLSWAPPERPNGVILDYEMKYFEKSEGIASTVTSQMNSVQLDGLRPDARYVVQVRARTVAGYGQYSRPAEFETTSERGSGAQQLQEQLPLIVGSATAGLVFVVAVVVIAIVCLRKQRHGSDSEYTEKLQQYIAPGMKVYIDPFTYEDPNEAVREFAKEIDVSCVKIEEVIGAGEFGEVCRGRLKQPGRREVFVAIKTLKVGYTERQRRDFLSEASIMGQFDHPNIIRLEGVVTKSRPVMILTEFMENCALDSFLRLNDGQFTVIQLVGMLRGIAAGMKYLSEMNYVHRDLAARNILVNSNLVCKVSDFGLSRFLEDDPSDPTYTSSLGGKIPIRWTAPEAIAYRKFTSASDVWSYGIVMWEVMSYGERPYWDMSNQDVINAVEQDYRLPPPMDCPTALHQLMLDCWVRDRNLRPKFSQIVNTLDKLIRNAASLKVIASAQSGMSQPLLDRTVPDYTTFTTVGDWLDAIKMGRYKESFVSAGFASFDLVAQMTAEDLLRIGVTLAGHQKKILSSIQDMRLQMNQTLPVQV

Regarding `C#Cc1cccc(Nc2nc3cc(C(=O)O)ccc3c3cncnc23)c1` [drawing 1135], the “TRKB percentage of activity” value in assay [1] is given as 10%. For the same compound, the “EPHB3 percentage of activity” value in assay [2] is −36%. Also, in [3], the “MUSK percentage of activity” value is on record as −6%. In [4], the “PRKCG percentage of activity” value is on record as 0%. In addition, the “p38-gamma percentage of activity” value in assay [5] stood at 12%. In assay [6], the “TBK1 percentage of activity” value is 70%. Besides, the “cKit(V654A) percentage of activity” value in assay [7] turned out to be 8%. Moreover, in assay [8], the “JNK1A1 percentage of activity” value is given as −9%. The “MST3 percentage of activity” value in assay [9] was determined as 0%. Also, the “SYK percentage of activity” value in assay [10] is −9%. Moreover, the “NEK6 percentage of activity” value in [11] was −3%. Moreover, the “FGFR4 percentage of activity” value in assay [12] is reported as 14%. Besides, the “GSK3A percentage of activity” value in assay [13] is recorded as 51%. Moreover, the “DCAMKL2 percentage of activity” value in assay [14] is −3%.
